Source: patent publication US20040166509A1, “Detecting hormonally active compounds” (priority 2002, published 2004)
One block for each molecule: values may come before it.

Assays:
[1] = tested on: hepatic mRNA of adult male SHMs; assay: SHM cDNA macroarray (30 genes): hepatic gene expression profiles of exposed fish; assay type: in vivo, sheepshead minnow (SHM)
[2] = tested on: estrogen receptors alpha, beta, and gamma, and Vtg 1 mRNA; assay: Real-time PCR of ER and Vtg 1 mRNA in LMB liver; assay type: in vivo, largemouth bass (LMB); details: male LMB liver, 48 h after IP 4-NP 50 mg/kg + ICI 182,780 1.0 mg/kg
Excerpt: Experimental Design and Sample Collection: Adult male LMB were purchased from American Sports Fish Hatchery (Montgomery, Ala.) and maintained in fiberglass tanks as previously described (Larkin et al., Comp. Biochem. Physiol. B. Biochem. Mol. Biol. 133:543-557, 2002; Larkin et al., Marine Environ. Res. 54:395-399, 2002; and Larkin et al., Comparative Biochemistry and Physiology 133:543-557, 2002). Array technology as a tool to monitor exposure of fish to xenoestrogens. Marine Environ. Res., 2002; Bowman et al., Mol. Cell. Endocrinol. 196:67-77, 2002). Each fish was injected IP with either 50 mg/kg 4-NP (Fluka, St. Louis, Mo. # 74430), the combination of 50 mg/kg 4-NP and 1.0 mg/kg ICI 182,780 (Tocris Cookson), or vehicle, which consisted of ethanol and DMSO (Sigma, St. Louis, Mo. #5879). Each dose was dissolved in 1 ml of ethanol and then diluted to the appropriate concentration with DMSO. The fish were euthanized by submersion in a water bath containing 50-100 ppm […] 48 hours post injection and sacrificed by a sharp blow to the head followed by cervical transaction. The livers were excised and immediately flash frozen in liquid nitrogen. The frozen tissues were stored at −80° C. until RNA was isolated.
RNA Isolation: Isolation of total RNA from liver tissue was performed with the RNA Stat-60 reagent (Tel-test). Briefly, 30 mg-50 mg of tissue stored in RNA later was homogenized in 0.9 mls STAT 60, choloroform was added, and the mixture was centrifuged at 12,000 g for 15 minutes at 4° C. The extraction process was repeated and the pooled RNA was added to 500 μl isopropanol and allowed to precipitate at −20° C. for at least one hour. Following centrifugation at 12,000 g for 50 minutes, the pellet was washed with 70% ethanol, air dried and resuspended in an appropriate volume (50 μl-120 μl of RNA secure. The samples were treated with RNA secure (Ambion, Austin Tex. #7010) to inactivate contaminating RNases. All isolated RNA was treated with DNase solution (Ambion, Austin, Tex. #1906) following the manufacture's protocol. For all RNA samples, the quantity and quality of total RNA was assessed by spectrophotometric readings at 260 nm and by electrophoresis through a 1% formaldahyde agarose gel stained with ethidium bromide.
Real-Time PCR: Real time PCR was performed using reagents and a 5700 thermocycler purchased from Applied Biosystems (ABI, Foster City, Calif.). The nucleotide sequences of the primers for the ER subtypes and Vtg 1 are as follows: 5′, […] (SEQ ID NO:563) AND 5′[…] (SEQ ID NO:564). Probes and primers for the ER subtypes and Vtg 1 are described in Bowman et al., Ecotoxicology 8:399-416, 1999; and Bowman et al., Mol. Cell Endocrinol. 196:67-77, 2002. Each real time PCR reaction consisted of 0.01-0.2 μg of reverse transcribed total RNA from liver tissue, 1× universal Taqman master mix (ABI, Foster City, Calif.), and primers and probes in a 25 μl reaction. […] Statistical differences between the treatments were determined by one way analysis of variance with Dunnets post-hoc analysis.
Measurement of ER and Vtg 1 mRNA by real-time PCR: Real-time PCR is a sensitive assay that can be used to quantitate expression levels of genes. Using this technology, assays were designed to quantitate the expression of 4 genes, estrogen receptors alpha, beta, and gamma, and Vtg 1 in LMB following exposure to 4-NP and 4-NP/ICI 182,780. […]

hepatic RNA of LMB = assay: LMB gene array (132 genes): hepatic gene expression after IP injection; assay type: in vivo, largemouth bass (LMB); details: two-fold cutoff vs control; for LMB83 vitellogenin-2 (Vtg 2) expression / LMB87 vitellogenin-1 (Vtg 1) expression / LMB97 choriogenin-3 expression / LMB108-1 choriogenin-2 expression / LMB47-2 (clone 47-2) expression: male LMB liver; for LMB83 vitellogenin-2 (Vtg 2) expression / LMB87 vitellogenin-1 (Vtg 1) expression / LMB97 choriogenin-3 expression / LMB108-1 choriogenin-2 expression: 48 h after single IP dose: E2 2.5 mg/kg, 4-NP 50 mg/kg or p,p′-DDE 100 mg/kg
[3] = Estrogen receptor alpha (clone ID not given)
[4] = clone SHM2-1: vitellogenin alpha (2)
[5] = clone SHM72-3: Coagulation Factor XI
[6] = clone SHM76-2: Alphal-microglobulin/bikunin precursor (AMBP) protein
[7] = male SHM liver, EE2 24, 109 or 832 ng/L, 4 days
[8] = female LMB liver, 48 h after single IP p,p′-DDE 100 mg/kg
[9] = female LMB liver, 48 h after single IP p,p′-DDE 100 mg/kg, listed as p, p′-DDE

Compound: CC/C(=C(/CC)c1ccc(O)cc1)c1ccc(O)cc1 [DES, diethylstilbestrol]
- Regulation [1, 3]: up-reg E2; EE2,
- Regulation [1, 4]: up-reg E2; EE2,
- Regulation ([1]; clone SHM11: Transferrin): dn-reg E2; EE2,
- Regulation [1, 5]: up-reg E2; EE2,
- Regulation [1, 6]: d-reg E2; EE2,

Compound: C#C[C@]1(O)CC[C@H]2[C@@H]3CCc4cc(O)ccc4[C@H]3CC[C@@]21C [EE2, 17α-ethynyl estradiol]
- Regulation [1, 3]: up-reg E2; EE2,
- Regulation [1, 4]: up-reg E2; EE2,
- Regulation ([1]; clone SHM11: Transferrin): dn-reg E2; EE2,
- Regulation [1, 5]: up-reg E2; EE2,
- Regulation [1, 6]: d-reg E2; EE2,
- ER α expression, EE2 dose response [1, 7]: increase in a concentration dependent manner
- Vtg α expression, EE2 dose response [1, 7]: increase in a concentration dependent manner
- Vtg β expression, EE2 dose response [1, 7]: increase in a concentration dependent manner
- alpha-1-microglobulin/bikunin precursor protein expression, EE2 dose response [1, 7]: decrease in a dose-dependent manner
- beta actin expression, EE2 dose response [1, 7]: decrease in a dose-dependent manner
- choriogenin 2 expression, EE2 dose response [1, 7]: increase in a concentration dependent manner
- choriogenin 3 expression, EE2 dose response [1, 7]: increase in a concentration dependent manner
- clone ND107-B expression, EE2 dose response [1, 7]: increase in a concentration dependent manner
- transferrin expression, EE2 dose response [1, 7]: decrease in a dose-dependent manner

- repression of 4-NP induction of Vtg 1 mRNA by addition of ICI 182,780 [2]: not repressed
Compound: C[C@]12CC[C@@H]3c4ccc(O)cc4C[C@@H](CCCCCCCCC[S+]([O-])CCCC(F)(F)C(F)(F)F)[C@H]3[C@@H]1CC[C@@H]2O (stereo partly shown) [ICI 182,780]

Compound: COc1ccc(C(c2ccc(OC)cc2)C(Cl)(Cl)Cl)cc1 [MXC, methoxychlor]
- Regulation [1, 3]: up-reg E2; EE2,
- Regulation [1, 4]: up-reg E2; EE2,
- Regulation ([1]; clone SHM11: Transferrin): dn-reg E2; EE2,
- Regulation [1, 5]: up-reg E2; EE2,
- Regulation [1, 6]: d-reg E2; EE2,

Compound: ClC(Cl)=C(c1ccc(Cl)cc1)c1ccc(Cl)cc1 [p,p′-DDE]
- LMB5 vitellogenin-2A expression, female (hepatic RNA of LMB; [8]): NP; Dn-reg
- LMB50-1 (clone 50-1) expression, female (hepatic RNA of LMB; [8]): Down reg NP;
- LMB53-1 (clone 53-1) expression, female (hepatic RNA of LMB; [8]): Down-reg. E2;
- LMB71-1 (clone 71-1) expression, female (hepatic RNA of LMB; [8]): down-reg
- LMB83 vitellogenin-2 expression, female (hepatic RNA of LMB; [8]): dn-reg DDE(F)
- LMB87 vitellogenin-1 expression, female (hepatic RNA of LMB; [8]): dn-reg DDE(F)
- LMB94-1 transferrin expression, female (hepatic RNA of LMB; [8]): Down-reg.
- LMB101-1 (clone 101-1) expression, female (hepatic RNA of LMB; [8]): Dn
- LMB102-1 chemotaxin expression, female (hepatic RNA of LMB; [8]): down-reg
- LMB107-1 (clone 107-1) expression, female (hepatic RNA of LMB; [8]): down-reg
- LMB108-1 choriogenin-2 expression, female (hepatic RNA of LMB; [8]): DDE(M); Dn-
- LMB112-1 cathepsin (Aspartic protease) expression, female (hepatic RNA of LMB; [8]): DHT; Dn-DDE (F)
- LMB118-1 apolipoprotein precursor (clone 118-1) expression, female (hepatic RNA of LMB; [8]): down-reg
- LMB120-1 hypothetical protein (clone 120-1) expression, female (hepatic RNA of LMB; [8]): donw-reg
- LMB128-1 (clone 128-1) expression, female (hepatic RNA of LMB; [8]): down-reg
- LMB141 vitellogenin-3 expression, female (hepatic RNA of LMB; [8]): dn DDE (F)
- LMB150 androgen receptor expression, female (hepatic RNA of LMB; [8]): Dn-reg DDE(F)
- four Vtg's expression, female (hepatic RNA of LMB; [8]): down-regulated
- genes up-regulated in female fish (hepatic RNA of LMB; [8]): no genes were identified as up-regulated
- LMB50-1 (clone 50-1) expression, female (hepatic RNA of LMB; [9]): down-regulated
- LMB53-1 (clone 53-1) expression, female (hepatic RNA of LMB; [9]): down-regulated
- LMB71-1 (clone 71-1) expression, female (hepatic RNA of LMB; [9]): down-regulated
- LMB94-1 transferrin expression, female (hepatic RNA of LMB; [9]): down-regulated
- LMB101-1 (clone 101-1) expression, female (hepatic RNA of LMB; [9]): down-regulated
- LMB102-1 chemotaxin expression, female (hepatic RNA of LMB; [9]): down-regulated
- LMB107-1 (clone 107-1) expression, female (hepatic RNA of LMB; [9]): down-regulated
- LMB108-1 choriogenin-2 expression, female (hepatic RNA of LMB; [9]): down-regulated
- LMB112-1 cathepsin (Aspartic protease) expression, female (hepatic RNA of LMB; [9]): down-regulated
- LMB118-1 apolipoprotein precursor (clone 118-1) expression, female (hepatic RNA of LMB; [9]): down-regulated
- LMB120-1 hypothetical protein (clone 120-1) expression, female (hepatic RNA of LMB; [9]): down-regulated
- LMB128-1 (clone 128-1) expression, female (hepatic RNA of LMB; [9]): down-regulated
- LMB150 androgen receptor expression, female (hepatic RNA of LMB; [9]): down-regulated
- LMB83 vitellogenin-2 (Vtg 2) expression (hepatic RNA of LMB): up-reg E2;
- LMB87 vitellogenin-1 (Vtg 1) expression (hepatic RNA of LMB): up-reg E2;
- LMB97 choriogenin-3 expression (hepatic RNA of LMB): Up-reg E2;
- LMB108-1 choriogenin-2 expression (hepatic RNA of LMB): Up-reg E2; NP;
- LMB83 vitellogenin-2 (Vtg 2) expression (hepatic RNA of LMB; listed as p, p′-DDE): up-regulated
- LMB87 vitellogenin-1 (Vtg 1) expression (hepatic RNA of LMB; listed as p, p′-DDE): up-regulated
- LMB97 choriogenin-3 expression (hepatic RNA of LMB; listed as p, p′-DDE): up-regulated
- LMB108-1 choriogenin-2 expression (hepatic RNA of LMB; listed as p, p′-DDE): up-regulated
- LMB47-2 (clone 47-2) expression (hepatic RNA of LMB; 48 h after single IP p,p′-DDE 100 mg/kg): Down-reg
- LMB47-2 (clone 47-2) expression (hepatic RNA of LMB; 48 h after single IP p,p′-DDE 100 mg/kg, listed as p, p′-DDE): down-regulated
